# Earlier results as cited in patent US20230346892A1, “TREATMENT OF LONG BONE FRACTURES WITH ABALOPARATIDE” (Radius Health, Inc., priority 2021, published 2023).
# What was measured:
# [1] = tested on: internally fixed femur fractures; conditions: rats with internally fixed femur fractures; Lanske et al. 2019
substance,measurement,setting,value
abaloparatide,fracture healing,[1],improved fracture healing
same,bone mineral density increases,"osteoporosis; compared with teriparatide, treating osteoporosis, Sleeman 2019, Miller 2016",greater bone mineral density increases
same,hypercalcemia,osteoporosis; in vivo,less hypercalcemia
